The results in this text go back to PubChem BioAssay (NCI).

What all share (test): growth of human tumour cells (NCI), 48 h
Assay [1] concerns DLD-1 colon.
Assay [2] deals with DMS 273 small cell lung.
The test system of assay [3] is HOP-18 NSCLC.
Assay [4] has as its system KM20L2 colon.
The test system of assay [5] is LXFL 529 NSCLC.
Assay [6] has as its system M14 melanoma.
Assay [7] has as its system M19-MEL melanoma.
In assay [8] the test system is MALME-3M melanoma.
The test system of assay [9] is OVCAR-8 ovarian.
Assay [10] concerns SNB-78 CNS.
Assay [11] relates to SW-620 colon.
The test system of assay [12] is XF 498 CNS.
The subject of assay [13] is A498 renal.
In assay [14] the test system is MDA-MB-435.

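Briefly, cells in 96-well plates were exposed to five compound concentrations for 48 h, and endpoints were estimated by linear interpolation. TGI is the concentration that stops growth completely.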

With `O=C(O)C1CCCCN1c1ccccc1[N+](=O)[O-]` (stereo not given), the TGI in assay [1], in assay [2], in assay [3], in [4], in assay [5] and in assay [6] was above 100 µM each time. Also, the TGI in [7], in assay [8], in assay [9], in assay [10], in [11] and in assay [12] was above 100 µM throughout.
Take `O=C(N/N=C/c1cc(Br)cc(Br)c1[O-])c1ccccc1O.O=C(N/N=C/c1cc(Br)cc(Br)c1[O-])c1ccccc1O.[Co+2]`: the TGI was found to be 11.6 µM in [4]; 2.73 µM in [6]; 18.5 µM in assay [8]; 12.5 µM in [9]; 17.2 µM in assay [11].
Take `CCOC(=O)c1c(NC(=S)Nc2ccccc2)sc2c1CCOC2`: the TGI in assay [13], in [6], in [8], in assay [14], in assay [9] and in [11] was above 100 µM each time.
Regarding `O=C(c1ccc(Cl)cc1)N(C(=S)OCCOc1ccccc1)c1ccccc1`, the TGI worked out at 48 µM in [13]; 32.4 µM in assay [6]; 70.7 µM in assay [8]; 30.7 µM in assay [14]; 48.3 µM in [9]; 41.2 µM in assay [11].
As to `O=c1oc2cc(O)ccc2c(O)c1Cc1c(O)c2ccc(O)cc2oc1=O`, the TGI in [13], in assay [6], in assay [8], in assay [14], in assay [9] and in assay [11] was above 100 µM throughout.
For `O=C(c1ccccc1)N1C(=S)N(c2ccccn2)C(=Nc2ccccc2)C1=Nc1ccccc1`, the TGI is above 100 µM in assay [13]; above 100 µM in assay [6]; 53.4 µM in assay [8]; above 58 µM in [14]; above 100 µM in assay [9]; above 65.6 µM in assay [11].
In the case of `CN(C)c1ccc(C=C2C(=O)NC(=S)NC2=O)c2ccccc12`, the TGI was above 100 µM in [13]; above 100 µM in assay [6]; above 100 µM in [8]; above 100 µM in assay [14]; 77 µM in assay [9]; above 100 µM in assay [11].
For the molecule `CC1=C(C)SC(=C2Sc3nc(O)[nH]c(=O)c3S2)S1`, the TGI in assay [13] was above 100 µM; in [6] it was 94.1 µM; in [8], 50.8 µM; in assay [14], above 100 µM; in [9] it was above 100 µM; in assay [11] it was above 100 µM.
As for `Cc1cccc(N/C(Sc2ccccc2)=C(/C(Cl)=C(Cl)Cl)[N+](=O)[O-])c1`, the TGI worked out at 40.6 µM in assay [13]; 36.7 µM in assay [6]; 30.2 µM in assay [8]; 34 µM in assay [14]; 29.6 µM in assay [9]; 31.1 µM in assay [11].
With `COc1ccc(-c2oc3c(OC)c(OC)cc(O)c3c(=O)c2OC)cc1`, the TGI in [13], in assay [6], in assay [8], in assay [14], in assay [9] and in [11] was above 100 µM throughout.
As to `c1ccc([I+]c2ccccc2)cc1`, the TGI in assay [13], in assay [6], in [8], in [14], in assay [9] and in [11] was above 100 µM each time.
For `O=C1CC(NCc2ccccc2)c2c(Cl)sc(Cl)c21` (stereo not given), the TGI is above 100 µM in assay [13]; above 63.6 µM in assay [6]; 44.4 µM in assay [8]; 85.2 µM in assay [14]; 48.5 µM in [9]; above 87.4 µM in assay [11].
In the case of `CN(Cc1cnc2c(N)nc(N)nc2n1)c1ccc(Cl)cc1`, the TGI in assay [13] is 98.5 µM; in assay [6], above 100 µM; in assay [8], above 100 µM; in [14] it was above 100 µM; in assay [9], above 100 µM; in assay [11] it was above 100 µM.
As for `O=C(CC(Cl)=C(Cl)Cl)c1ccccc1`, the TGI in assay [13], in assay [6], in assay [8], in assay [14], in assay [9] and in assay [11] was above 100 µM throughout.
As to `CC(=O)OC(C)(C)CCC(=O)[C@](C)(O)[C@H]1[C@H](O)C[C@@]2(C)[C@@H]3CCc4c(cc(OC5OC(CO)C(O)C(O)C5O)c(O)c4C)C3(C)C(=O)C[C@]12C` (stereo not given in full), the TGI in assay [13], in assay [6], in assay [8], in [14], in assay [9] and in assay [11] was above 100 µM each time.
Consider `O=C1CC(=O)NC(=NNS(=O)(=O)c2ccc(Cl)cc2)N1`, for which the TGI in assay [13], in assay [6], in assay [8], in [14], in assay [9] and in assay [11] was above 100 µM throughout.
As to `Cc1[nH]c(=O)nc(NNCc2ccc(Cl)cc2)c1C(=O)Nc1ccc(Cl)cc1`, the TGI in assay [13], in assay [6], in [8], in assay [14], in assay [9] and in assay [11] was above 100 µM in each case.
On to `O=c1cc(-c2ccccc2)[nH]c2nccn12`, for which the TGI in [13], in assay [6], in assay [8], in assay [14], in assay [9] and in [11] was above 10 µM throughout.
On to `CC(=O)Oc1ccc2c3c1O[C@H]1[C@H](O)CC[C@@]4(O)[C@@H](C2)N(C)CC[C@]314`, for which the TGI in assay [13], in assay [6], in [8], in assay [14], in assay [9] and in assay [11] was above 100 µM in each case.
With `O=CN1CCN(C(=O)c2ccc(Cl)c(Cl)c2)C1=S`, the TGI in assay [13] came out at 29.8 µM; in assay [6] it was 31.4 µM; in assay [8] it was 39.1 µM; in [14] it was 31.8 µM; in assay [9] it was 29.4 µM; in [11], 42.1 µM.
Consider `O=[N+]([O-])c1ccc(NNN=Nc2ccc(-c3nc4ccccc4s3)cc2)c([N+](=O)[O-])c1`, for which the TGI in assay [13] was 20.5 µM; in assay [6] it was 35.2 µM; in assay [8], 77.6 µM; in assay [14], 66.2 µM; in [9] it was 72.5 µM; in assay [11], above 100 µM.
For `CCOc1cc2c(c(OCC)c1O)CC[C@@H]1[C@@H]2CC[C@]2(C)[C@@H](O)CC[C@@H]12`, the TGI in assay [13] was 41.6 µM; in [6], above 100 µM; in assay [8] it was 66.4 µM; in assay [14], 3.05 µM; in assay [9], above 100 µM; in assay [11], 41.7 µM.
Turning to `CCn1cnnc1-c1nsc2ccccc12`, the TGI in assay [2], in assay [3], in assay [4], in assay [5], in assay [6] and in [7] was above 100 µM in each case. Also, the TGI in assay [9], in assay [10] and in [11] was above 100 µM in each case.
Regarding `CNc1nc(C(N)=O)c(N)s1`, the TGI in assay [13], in assay [6], in [8], in assay [14], in assay [9] and in [11] was above 100 µM throughout.
Regarding `COc1cccc(C2c3cc4c(cc3OC(Nc3ccccc3)C2C)OCO4)c1OC` (stereo not given), the TGI in assay [13] is above 100 µM; in [6], above 100 µM; in assay [8], above 100 µM; in [14], above 100 µM; in assay [9], 33.1 µM; in assay [11] it was above 100 µM.
Consider `CC1C(C#N)(C#N)C(C#N)=C(N)C1(Cl)[N+](=O)[O-]` (stereo not given), for which the TGI in [13] came to 31.5 µM; in assay [6] it was 22.1 µM; in assay [8], 18.7 µM; in assay [14], 31.6 µM; in assay [9] it was 28.7 µM; in assay [11], 4.46 µM.
Consider `COc1cccc(/C=C2\S/C(=N/Nc3nc(-c4ccc([N+](=O)[O-])cc4)cs3)NC2=O)c1O`, for which the TGI was 50.9 µM in [13]; 33.2 µM in assay [6]; 42.3 µM in assay [8]; 42.2 µM in assay [14]; 48.3 µM in assay [9]; 46.1 µM in assay [11].
For the molecule `CSc1nc2c(c(=O)[nH]1)N=C(c1ccccc1)CC(c1ccccc1)N2` (stereo not given), the TGI is above 100 µM in assay [13]; above 100 µM in [6]; 75.6 µM in [8]; above 100 µM in [14]; above 100 µM in [9]; above 100 µM in [11].
As to `CC1=C(C(=O)N[C@@H](CC(C)C)C(=O)O)N2C(=O)[C@@H](NC(=O)C(N)c3ccccc3)[C@H]2SC1` (stereo not given in full), the TGI in [13], in assay [6], in assay [8], in assay [14], in assay [9] and in [11] was above 100 µM each time.
For `CC(C)N(C(C)C)S(=O)(=O)C[C@]12CC[C@H](CC13OCC(CS(=O)(=O)c1ccccc1)O3)C2(C)C` (stereo not given in full), the TGI in assay [13], in assay [6], in [8], in [14], in assay [9] and in [11] was above 100 µM in each case.
On to `OC1CSc2nc3ccccc3n2C1` (stereo not given), for which the TGI in assay [13], in assay [6], in assay [8], in assay [14], in assay [9] and in [11] was above 100 µM throughout.
Take `COC(=O)CCC(NC(=O)OC(C)(C)C)C(=O)NC(Cc1ccc(NC(=O)CCCC(C)=O)cc1)C(=O)NC(CCC(=O)OC)C(=O)OC` (stereo not given): the TGI in assay [13], in assay [6], in [8], in assay [14], in [9] and in assay [11] was above 100 µM in each case.
Turning to `CCOC(=O)NN(C(=O)OCC)c1c(C)cc(C)cc1C`, the TGI in [13], in assay [6], in assay [8], in [14], in assay [9] and in assay [11] was above 100 µM in each case.
For `N#Cc1c(-c2ccccc2)c(CN2CCCCC2)c(=O)n2c1[nH]c1ccccc12`, the TGI in [13], in assay [6], in assay [8], in assay [14], in assay [9] and in [11] was above 100 µM each time.
For `CCC1NC(N=Nc2ccc([N+](=O)[O-])cc2)(P(=O)(OC(C)C)OC(C)C)OC1=O` (stereo not given), the TGI in assay [13], in [1], in assay [2], in assay [4], in [5] and in assay [6] was above 100 µM throughout. For the same molecule, the TGI in assay [7], in assay [8], in assay [9], in assay [10], in [11] and in assay [12] was above 100 µM in each case.
Take `Cc1ccc2c(/C=C/c3ccc(N(C)C)cc3)ccc(C(C)C)cc1-2`: the TGI in [13], in assay [6], in assay [8], in assay [14], in [9] and in assay [11] was above 100 µM in each case.
